Consider two molecules from US12565522B2, “Micropeptide HMMW and application thereof” (NANJING ANJI BIOTECHNOLOGY CO., LTD., priority 2019, dated 2026).

Common to all, as to assay type: cell-based, human
The test system of test [1] is TE13 cells of esophageal squamous cell carcinoma. Nature of the test: cells. The note with it: Homo sapiens, dose 10 μg/ml, 48 h, positive control, read-out: proliferation inhibition rate. As to the method: (§1) After SCC4 cells of head and neck cancer, SW579 cells of thyroid cancer, A549 cells of lung cancer, TE13 cells of esophageal squamous cell carcinoma, MGC803 cells of stomach cancer, MDA-MB-231 cells of breast cancer, UOK262 cells of kidney cancer and A431 cells of skin cancer of human were cultured in a 37 DEG C. 5% CO2 incubator until the density was 90%, they were digested and collected by trypsin, the cells were re-suspended in a culture solution and counted under a microscope, the concentration of the cells was adjusted to 3.0×10^4 cells/mL, and the cell suspension was inoculated to 96-well plates, 100 μL per well, and cultured in a 37 DEG C. 5% CO2 incubator overnight. After the cells were completely adherent, different doses of micropeptides HMMW I to IX were added as drug groups, taxol was used as a positive control group, and the culture solution without any drug was used as a blank control group. They were diluted with the culture solution till predetermined concentrations. The diluted solutions were added to 96-well plates, respectively, 100 μL per well, and incubated in a 37 DEG C. 5% CO2 incubator for 48 h. 20 μL of 5 mg/mL MTT was added to each well of the 96-well plates, and the culture was continued for 4 h. The culture medium was sucked away, and 100 μL of DMSO was added to each well for dissolution. Absorbance was detected by ELIASA at detection wavelength 570 nm and reference wavelength 630 nm, and proliferation inhibition (PI) was calculated according to Formula PI (%)=1−drug group/negative group. The test was independently repeated three times. The results obtained from the test were expressed with mean±SD and statistical t test was done. *P<0.05 means significant difference, and **P<0.01 means very significant difference.

Test [2] deals with A549 cells of lung cancer. In words: cells. Conditions: Homo sapiens, dose 10 μg/ml, 48 h, positive control, read-out: proliferation inhibition rate. As to the method: as §1
For test [3], the system named is SW579 cells of thyroid cancer. Nature of the test: cells. The note with it: Homo sapiens, dose 10 μg/ml, 48 h, positive control, read-out: proliferation inhibition rate. As for the experimental part:
as §1

In test [4] the test system is UOK262 cells of kidney cancer. In words: cells. Conditions: Homo sapiens, UOK 262, dose 10 μg/ml, 48 h, positive control, read-out: proliferation inhibition rate. As for the experimental part:
as §1

Test [5] deals with A431 cells of skin cancer. Nature of the test: cells. The note with it: Homo sapiens, A-431, dose 10 μg/ml, 48 h, positive control, read-out: proliferation inhibition rate. As to the method: as §1
In test [6] the test system is MGC803 cells of stomach cancer. Nature of the test: cells. Conditions: Homo sapiens, MGC-803, dose 10 μg/ml, 48 h, positive control, read-out: proliferation inhibition rate. As to the method: as §1
The subject of test [7] is MDA-MB-231 cells of breast cancer. In words: cells. Conditions: Homo sapiens, dose 10 μg/ml, 48 h, positive control, read-out: proliferation inhibition rate. As to the method:
as §1

Test [8] has as its system SCC4 cells of head and neck cancer. Nature of the test: cells. The note with it: Homo sapiens, SCC-4, dose 10 μg/ml, 48 h, positive control, read-out: proliferation inhibition rate. As for the experimental part: as §1
Test [9] deals with TE13 cells of esophageal squamous cell carcinoma. In words: Matrigel transwell invasion test. The note with it: dose 10 (unit not given), 24 h. As to the method: (§2) Dilute 10 mg/mL Matrigel with culture medium at 1:3, spread it on membranes of transwell cells and dry it in the air at room temperature. Use trypsin to digest and collect SCC4 cells of head and neck cancer, SW579 cells of thyroid cancer, A549 cells of lung cancer, TE13 cells of esophageal squamous cell carcinoma, MGC803 cells of stomach cancer, MDA-MB-231 cells of breast cancer, UOK262 cells of kidney cancer, and A431 cells of skin cancer of human, which were cultured to the logarithmic phase, wash with PBS twice and re-suspend with a blank culture medium. Adjust cell concentration to 1×10^5 cells/mL. Inoculate the cells to transwell cells, 100 μL per well, and meanwhile add micropeptides HMMW I to IX at different doses to every cell. Add 0.6 mL of complete medium containing 10% FBS to the transwell cells to stimulate cell invasion, and culture in 5% CO2 at 37 DEG C. for 24 h. Discard the medium in the wells, fix with 90% alcohol at room temperature for 30 min, stain with 0.1% crystal violet at room temperature for 10 min, rinse with clear water, gently wipe off the non-invaded cells in the upper layer with a cotton swab, observe under a microscope and select four fields of view to take pictures and count. Calculate the invasion inhibition rate (IIR) of the cells according to the following formula:
(§3) [formula] where Ntest is the number of invaded cells in the test groups (the groups at a dose of 1, 4 or 16 μM in the table), Ncontrol is the number of invaded cells in the blank control groups (the groups at a dose of 0 μM in the table). The test was repeated independently three times. Mean±SD was calculated based on the test results. Statistical t test was done. Value P was used to express statistical difference. The statistical significance of the results is a method for estimating how true the results are (the totality can be represented), *P<0.05 means significant difference, and **P<0.01 means very significant difference.

For test [10], the system named is A549 cells of lung cancer. In words: Matrigel transwell invasion test. Conditions: dose 10 (unit not given), 24 h. As to the method:
as §2, §3

Test [11] has as its system SW579 cells of thyroid cancer. Nature of the test: Matrigel transwell invasion test. Conditions: dose 10 (unit not given), 24 h. As to the method: as §2, §3
For test [12], the system named is UOK262 cells of kidney cancer. Nature of the test: Matrigel transwell invasion test. The note with it: dose 10 (unit not given), 24 h. As for the experimental part:
as §2, §3

Test [13] deals with A431 cells of skin cancer. Nature of the test: Matrigel transwell invasion test. Conditions: dose 10 (unit not given), 24 h. As to the method:
as §2, §3

Test [14] deals with MGC803 cells of stomach cancer. In words: Matrigel transwell invasion test. Conditions: dose 10 (unit not given), 24 h. As for the experimental part:
as §2, §3

For test [15], the system named is MDA-MB-231 cells of breast cancer. Nature of the test: Matrigel transwell invasion test. Conditions: dose 10 (unit not given), 24 h. As for the experimental part: as §2, §3
Test [16] concerns SCC4 cells of head and neck cancer. Nature of the test: Matrigel transwell invasion test. The note with it: dose 10 (unit not given), 24 h. As to the method:
as §2, §3

The subject of test [17] is TE13 cells of esophageal squamous cell carcinoma. In words: transwell migration test. The note with it: dose 10 (μM), 24 h. As to the method: (§4) Inoculate SCC4 cells of head and neck cancer, SW579 cells of thyroid cancer, A549 cells of lung cancer, TE13 cells of esophageal squamous cell carcinoma, MGC803 cells of stomach cancer, MDA-MB-231 cells of breast cancer, UOK262 cells of kidney cancer, and A431 cells of skin cancer of human to transwell cells, 100 μL per well, and meanwhile add micropeptides HMMW I to IX at different doses to every cell. Add 0.6 mL of complete medium containing 10% FBS to the transwell cells to stimulate cell migration, and culture in 5% CO2 at 37 DEG C. for 24 h. Discard the medium in the wells, fix with 90% alcohol at room temperature for 30 min, stain with 0.1% crystal violet at room temperature for 10 min, rinse with clear water, gently wipe off the non-migrated cells in the upper layer with a cotton swab, observe under a microscope and select four fields of view to take pictures and count. Calculate the migration inhibition rate (MIR) of the cells according to the following formula: […]
(§5) The test was repeated independently three times. Mean±SD was calculated based on the test results. Statistical t test was done. Here, “the test was repeated independently three times” means that every dose of any type of cells was tested repeatedly three times, and then the above formula was used to calculate the number of migrated cells (Mean±SD). Value P was used to express statistical difference. The statistical significance of the results is a method for estimating how true the results are (the totality can be represented), *P<0.05 means significant difference, and **P<0.01 means very significant difference.

In test [18] the test system is A549 cells of lung cancer. In words: transwell migration test. Conditions: dose 10 (μM), 24 h. As to the method:
as §4, §5

Test [19] concerns SW579 cells of thyroid cancer. Nature of the test: transwell migration test. The note with it: dose 10 (μM), 24 h. As for the experimental part:
as §4, §5

Test [20] deals with UOK262 cells of kidney cancer. In words: transwell migration test. Conditions: dose 10 (μM), 24 h. As to the method:
as §4, §5

Test [21] relates to A431 cells of skin cancer. In words: transwell migration test. The note with it: dose 10 (μM), 24 h. As for the experimental part: as §4, §5
Test [22] deals with MGC803 cells of stomach cancer. In words: transwell migration test. Conditions: 24 h. As for the experimental part: as §4, §5
The subject of test [23] is MDA-MB-231 cells of breast cancer. Nature of the test: transwell migration test. Conditions: dose 10 (μM), 24 h. As to the method: as §4, §5
The subject of test [24] is SCC4 cells of head and neck cancer. Nature of the test: transwell migration test. The note with it: dose 10 (μM), 24 h. As to the method: as §4, §5

For the molecule `CC(=O)O[C@H]1C(=O)[C@@]2(C)[C@H]([C@H](OC(=O)c3ccccc3)[C@]3(O)C[C@H](OC(=O)[C@H](O)[C@@H](NC(=O)c4ccccc4)c4ccccc4)C(C)=C1C3(C)C)[C@]1(OC(C)=O)CO[C@@H]1C[C@@H]2O` [Taxol, taxol, reference compound], the inhibition at 10 µg/mL in [1] amounted to 79.2%; in [2], 84.3%; in test [3], 82.8%; in [4] it was 83.9%; in test [5], 85.2%; in [6], 81.3%. Also, the inhibition at 10 µg/mL in test [7] turned out to be 83.9%; in [8] it was 87%.
Take “Avastin: comparison group in the migration and invasion tables; not described in the text [reference compound]”: the invasion inhibition rate in test [9] was 69.31%; in test [10], 61.35%; in [11], 67.40%; in test [12], 72.16%; in [13] it was 70.39%; in [14] it was 63.48%. Besides, the invasion inhibition rate in test [15] is recorded as 70.03%; in test [16], 68.41%. In addition, the migration inhibition rate in test [17] came to 58.19%; in test [18], 66.21%; in [19], 59.81%; in test [20], 61.39%; in test [21], 64.63%; in [22], 71.25%. In addition, the migration inhibition rate in test [23] amounted to 62.19%; in [24] it was 68.64%.
